Columns and labels:
Assay type in all cases: in vivo
[1] = tested on: Amaranthus retroflexus; assay: Post-emergence herbicidal action against AMARE; details: visual assessment about 3 weeks after treatment
Experimental: (§1) Seeds of monocotyledonous and dicotyledonous weed and crop plants are laid out in sandy loam soil in wood-fiber pots, covered with soil and cultivated in a greenhouse under good growth conditions. 2 to 3 weeks after sowing, the test plants are treated at the one-leaf stage. The compounds of the invention, formulated in the form of wettable powders (WP) or as emulsion concentrates (EC), are then sprayed onto the green parts of the plants in the form of an aqueous suspension or emulsion at a water application rate equivalent to 600 to 800 l/ha, with addition of 0.2% wetting agent. After the test plants have been left to stand in the greenhouse under optimal growth conditions for about 3 weeks, the action of the preparations is assessed visually in comparison to untreated controls (herbicidal action in percent (%): 100% activity=the plants have died, 0% activity=like control plants). […] The tables below illustrate, in an illustrative manner, the post-emergence herbicidal action of the compounds of the invention, the herbicidal activity being stated in percent.

[2] = tested on: Amaranthus retroflexus; assay: Pre-emergence herbicidal action against AMARE; details: visual score after 3 weeks vs untreated controls
Source text: (§2) Seeds of monocotyledonous and dicotyledonous weed plants and crop plants are laid out in sandy loam soil in wood-fiber pots and covered with soil. The compounds of the invention, formulated in the form of wettable powders (WP) or as emulsion concentrates (EC), are then applied to the surface of the covering soil in the form of an aqueous suspension or emulsion at a water application rate equivalent to 600 to 800 l/ha, with addition of 0.2% wetting agent. After the treatment, the pots are placed in a greenhouse and kept under good growth conditions for the trial plants. The damage to the test plants is scored visually after a test period of 3 weeks by comparison with untreated controls (herbicidal activity in percent (%): 100% activity=the plants have died, 0% activity=like control plants). […] The tables below illustrate, in an illustrative manner, the post-emergence herbicidal action of the compounds of the invention, the herbicidal activity being stated in percent.

[3] = tested on: Pharbitis purpurea; assay: Post-emergence herbicidal action against PHBPU; details: 20 g/ha, visual assessment about 3 weeks after treatment
Experimental: as §1

[4] = tested on: Matricaria inodora; assay: Pre-emergence herbicidal action against MATIN; details: visual score after 3 weeks vs untreated controls
Source text: as §2

[5] = tested on: Echinochloa crus-galli; assay: Post-emergence herbicidal action against ECHCG; details: 20 g/ha, visual assessment about 3 weeks after treatment
Experimental: as §1

[6] = tested on: Setaria viridis; assay: Post-emergence herbicidal action against SETVI; details: visual assessment about 3 weeks after treatment
Experimental: as §1

[7] = tested on: Setaria viridis; assay: Pre-emergence herbicidal action against SETVI
Source text: as §2

[8] = tested on: Veronica persica; assay: Post-emergence herbicidal action against VERPE; details: 20 g/ha, visual assessment about 3 weeks after treatment
Experimental: as §1

[9] = tested on: Abutilon theophrasti; assay: Pre-emergence herbicidal action against ABUTH; details: visual score after 3 weeks vs untreated controls
Source text: as §2

[10] = tested on: Alopecurus myosuroides; assay: Pre-emergence herbicidal action against ALOMY; details: visual score after 3 weeks vs untreated controls
Source text: as §2

[11] = tested on: Echinochloa crus-galli; assay: Pre-emergence herbicidal action against ECHCG; details: 80 g/ha; visual score after 3 weeks vs untreated controls
Source text: as §2

[12] = tested on: Abutilon theophrasti; assay: Post-emergence herbicidal action against ABUTH
Experimental: as §1

[13] = tested on: Viola tricolor; assay: Post-emergence herbicidal action against VIOTR
Experimental: as §1

[14] = tested on: Viola tricolor; assay: Pre-emergence herbicidal action against VIOTR
Source text: as §2

[15] = tested on: Matricaria inodora; assay: Post-emergence herbicidal action against MATIN; details: visual assessment about 3 weeks after treatment
Experimental: as §1

[16] = tested on: Alopecurus myosuroides; assay: Post-emergence herbicidal action against ALOMY
Experimental: as §1

[17] = tested on: Avena fatua; assay: Post-emergence herbicidal action against AVEFA; details: 20 g/ha, visual assessment about 3 weeks after treatment
Experimental: as §1

[18] = tested on: Veronica persica; assay: Pre-emergence herbicidal action against VERPE; details: 80 g/ha
Source text: as §2

[19] = tested on: Digitaria sanguinalis; assay: Pre-emergence herbicidal action against DIGSA
Source text: as §2

[20] = tested on: Avena fatua; assay: Pre-emergence herbicidal action against AVEFA; details: 80 g/ha; visual score after 3 weeks vs untreated controls
Source text: as §2

Row | Structure (SMILES) | Post-emergence action against AMARE in % ([1]; 5 g/ha) [%] | Post-emergence action against AMARE in % ([1]; 20 g/ha) [%] | Pre-emergence action against AMARE ([2]; 20 g/ha) [%] | Pre-emergence action against AMARE ([2]; 80 g/ha) [%] | Pre-emergence action against MATIN ([4]; 20 g/ha) [%] | Pre-emergence action against MATIN ([4]; 80 g/ha) [%] | Post-emergence action against ECHCG in % [5] [%] | Post-emergence action against SETVI in % ([6]; 20 g/ha) [%] | Pre-emergence action against SETVI ([7]; 80 g/ha) [%] | Post-emergence action against VERPE in % [8] [%] | Pre-emergence action against ABUTH ([9]; 80 g/ha) [%] | Pre-emergence action against ALOMY ([10]; 80 g/ha) [%] | Pre-emergence action against ECHCG [11] [%] | Post-emergence action against ABUTH ([12]; 5 g/ha) [%] | Post-emergence action against ABUTH ([12]; 20 g/ha) [%] | Post-emergence action against VIOTR in % ([13]; 20 g/ha) [%] | Pre-emergence action against VIOTR ([14]; 80 g/ha) [%] | Pre-emergence action against ABUTH ([9]; 20 g/ha) [%] | Post-emergence action against MATIN in % ([15]; 20 g/ha) [%] | Post-emergence action against ALOMY ([16]; 20 g/ha) [%] | also measured
1 | Cc1c(C(=O)Nc2nnnn2C)ccc(C(F)F)c1C(=O)N(C)C [Example 1-50] | 90 | 100 | 90 | 100 | 80 | 90 | 80 | 80 | 80 | 80 | 100 | 80 | 80 | 80 | 90 | 80 | – | – | – | – | Post-emergence action against PHBPU in % [3]: 80%
2 | CCOC(=O)[C@@H]1CCCN1C(=O)c1c(C(F)F)ccc(C(=O)Nc2nnnn2C)c1Cl [Example 1-402] | – | 90 | – | 100 | – | 90 | – | – | – | – | – | – | – | – | – | – | – | – | – | – | –
3 | CCn1nnnc1NC(=O)c1ccc(C(F)F)c(C(=O)N(C2CC2)C2CC2)c1Cl [Example 2-175] | 100 | 100 | 100 | 100 | 90 | 100 | – | – | – | – | 100 | 90 | – | 80 | 90 | 80 | 90 | 100 | – | – | Pre-emergence action against ALOMY ([10]; 20 g/ha): 80%
4 | CCN(CC)C(=O)c1c(C(F)F)ccc(C(=O)Nc2nnnn2C)c1C [Example 1-59] | 100 | 100 | 100 | 100 | – | 90 | 80 | 90 | 100 | 90 | 100 | 90 | – | 90 | 90 | 80 | – | – | 90 | 90 | Post-emergence action against ALOMY ([16]; 5 g/ha): 90%; Post-emergence action against AVEFA in % [17]: 90%; Post-emergence action against SETVI in % ([6]; 5 g/ha): 90%; Pre-emergence action against VERPE [18]: 90%
5 | CCN(CC)C(=O)c1c(C(F)F)ccc(C(=O)Nc2nnnn2CC)c1C [Example 2-59] | 100 | 100 | 80 | 100 | 90 | 100 | 90 | 90 | – | 90 | 100 | 90 | 90 | 90 | 90 | 90 | 100 | 100 | 90 | 90 | Post-emergence action against MATIN in % ([15]; 5 g/ha): 80%; Post-emergence action against SETVI in % ([6]; 5 g/ha): 90%; Pre-emergence action against VERPE [18]: 90%; Pre-emergence action against VIOTR ([14]; 20 g/ha): 100%; Post-emergence action against VIOTR in % ([13]; 5 g/ha): 80%
6 | Cn1nnnc1NC(=O)c1ccc(C(F)F)c(C(=O)N(C2CC2)C2CC2)c1Cl [Example 1-175] | 100 | 100 | 80 | 100 | 90 | 90 | – | – | – | – | 100 | – | – | 80 | 90 | – | 90 | 90 | 90 | – | –
7 | CCOC(=O)[C@@H]1CCCN1C(=O)c1c(C(F)(F)F)ccc(C(=O)Nc2nnnn2C)c1Cl [Example 1-400] | – | – | 90 | 100 | – | 90 | – | – | – | – | 100 | – | – | – | – | – | – | – | – | – | Pre-emergence action against DIGSA ([19]; 20 g/ha): 100%; Pre-emergence action against DIGSA ([19]; 80 g/ha): 100%
8 | CCn1nnnc1NC(=O)c1ccc(C(F)(F)F)c(C(=O)N(C2CC2)C2CC2)c1Cl [Example 2-144] | 90 | 90 | – | 100 | – | 100 | – | – | – | – | 100 | – | – | – | – | – | 100 | 90 | 80 | – | –
9 | Cn1nnnc1NC(=O)c1ccc(C(F)(F)F)c(C(=O)N(C2CC2)C2CC2)c1Cl [Example 1-144] | 90 | 90 | 90 | 100 | 90 | 100 | – | – | – | – | 100 | – | – | – | – | – | 100 | 80 | – | – | Pre-emergence action against VIOTR ([14]; 20 g/ha): 80%; Pre-emergence action against DIGSA ([19]; 80 g/ha): 100%
10 | CCN(C)C(=O)c1c(C(F)F)ccc(C(=O)Nc2nnnn2C)c1C [Example 1-51] | 100 | 100 | 80 | 100 | – | 90 | 80 | 80 | 80 | 80 | 100 | 80 | 90 | 80 | 80 | 90 | 90 | – | 80 | 80 | Post-emergence action against PHBPU in % [3]: 90%; Post-emergence action against SETVI in % ([6]; 5 g/ha): 80%; Pre-emergence action against VERPE [18]: 80%; Post-emergence action against VIOTR in % ([13]; 5 g/ha): 80%
11 | CCn1nnnc1NC(=O)c1ccc(Br)c(C(=O)N(C)C)c1Cl [Example 2-191] | 100 | 100 | 100 | 100 | 90 | 100 | – | 100 | 100 | – | 100 | 100 | 100 | 90 | 90 | 80 | 80 | 90 | – | 100 | Post-emergence action against PHBPU in % [3]: 80%; Pre-emergence action against AVEFA [20]: 90%; Post-emergence action against SETVI in % ([6]; 5 g/ha): 100%; Pre-emergence action against SETVI ([7]; 20 g/ha): 100%; Pre-emergence action against ALOMY ([10]; 20 g/ha): 90%
